From publication PMC2099433, “The binding site for neohesperidin dihydrochalcone at the human sweet taste receptor” (BMC Structural Biology, 2007)
Changes are numbered by the printed parent chain. Where a SMILES comes first, the peptide text is derived from it.

What was measured:
[1] = target: T1, hTAS1R2 + hTAS1R3 F778A^6.51 (Homo sapiens, UniProt Q7RTX0+Q8TE23, F778A); assay: Calcium response (FLIPR), hTAS1R3 mutant coexpressed with hTAS1R2; format: cell-based; settings: variant F778A^6.51; for Emax: read-out: maximal signal (% of wt)
T1 construct: expressed in transfected cells; host or cells: HEK293T cells stably expressing G16Gust44
T1 sequence (Q8TE23 20-839): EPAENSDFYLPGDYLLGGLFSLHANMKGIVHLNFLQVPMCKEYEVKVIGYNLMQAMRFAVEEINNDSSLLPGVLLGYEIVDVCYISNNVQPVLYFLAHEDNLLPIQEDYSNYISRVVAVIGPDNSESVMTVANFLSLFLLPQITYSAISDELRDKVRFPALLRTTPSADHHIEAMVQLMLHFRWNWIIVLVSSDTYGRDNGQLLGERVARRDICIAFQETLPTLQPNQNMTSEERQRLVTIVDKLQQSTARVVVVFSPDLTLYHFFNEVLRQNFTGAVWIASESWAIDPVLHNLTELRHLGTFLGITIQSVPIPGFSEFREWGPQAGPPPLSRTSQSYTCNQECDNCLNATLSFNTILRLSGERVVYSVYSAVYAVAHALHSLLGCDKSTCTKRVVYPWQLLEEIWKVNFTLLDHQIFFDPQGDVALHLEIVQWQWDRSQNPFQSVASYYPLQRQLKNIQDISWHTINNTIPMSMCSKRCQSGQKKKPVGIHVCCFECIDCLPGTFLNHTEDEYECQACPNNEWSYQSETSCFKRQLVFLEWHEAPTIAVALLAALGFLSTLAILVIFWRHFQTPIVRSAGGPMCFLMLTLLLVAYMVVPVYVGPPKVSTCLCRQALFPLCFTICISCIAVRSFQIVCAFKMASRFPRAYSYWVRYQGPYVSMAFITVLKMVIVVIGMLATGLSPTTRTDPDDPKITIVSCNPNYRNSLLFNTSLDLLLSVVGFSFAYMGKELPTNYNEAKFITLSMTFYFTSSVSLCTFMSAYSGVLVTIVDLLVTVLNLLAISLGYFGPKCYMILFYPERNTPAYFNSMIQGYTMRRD
T1 sequence (Q7RTX0 21-852 F778A): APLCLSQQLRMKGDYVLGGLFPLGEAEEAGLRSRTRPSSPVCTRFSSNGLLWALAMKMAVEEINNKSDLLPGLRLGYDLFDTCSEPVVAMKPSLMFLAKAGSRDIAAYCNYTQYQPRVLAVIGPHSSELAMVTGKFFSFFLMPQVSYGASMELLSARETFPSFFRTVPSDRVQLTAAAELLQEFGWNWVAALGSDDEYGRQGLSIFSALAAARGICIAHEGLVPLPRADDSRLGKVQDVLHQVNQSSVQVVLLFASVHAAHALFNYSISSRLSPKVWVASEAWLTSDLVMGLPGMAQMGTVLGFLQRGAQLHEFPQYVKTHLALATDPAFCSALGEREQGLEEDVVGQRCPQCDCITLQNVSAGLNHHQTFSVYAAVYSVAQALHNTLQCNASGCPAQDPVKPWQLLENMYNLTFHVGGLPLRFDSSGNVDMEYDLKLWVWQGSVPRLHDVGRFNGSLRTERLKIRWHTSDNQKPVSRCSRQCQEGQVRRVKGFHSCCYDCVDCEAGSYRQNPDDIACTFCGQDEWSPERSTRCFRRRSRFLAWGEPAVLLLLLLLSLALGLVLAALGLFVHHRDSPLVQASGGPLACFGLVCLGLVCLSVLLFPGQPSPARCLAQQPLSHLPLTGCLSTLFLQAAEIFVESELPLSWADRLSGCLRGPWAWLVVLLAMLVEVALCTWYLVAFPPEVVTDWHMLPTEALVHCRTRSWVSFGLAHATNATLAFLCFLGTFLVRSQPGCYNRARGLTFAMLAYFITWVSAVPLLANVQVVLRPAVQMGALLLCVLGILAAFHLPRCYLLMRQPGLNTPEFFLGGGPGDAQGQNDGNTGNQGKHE
How it was run: (§1)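 Read-out: FLIPR calcium signal as ΔF/F = (F-F0)/F0, corrected for mock-transfected cells. Cells were HEK293T stably carrying G16Gust44, transiently transfected with HSV-tagged receptor cDNAs and dye-loaded with Fluo4-AM 24 h post transfection.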

[2] = target: T2, hTAS1R2 + hTAS1R3 T724L^5.37 (Homo sapiens, UniProt Q7RTX0+Q8TE23, T724L); assay: as above; format: cell-based; settings: variant T724L^5.37; for Emax: read-out: maximal signal (% of wt)
T2 construct: expressed in transfected cells; host or cells: HEK293T cells stably expressing G16Gust44
T2 sequence (Q7RTX0 21-852 T724L): T1 sequence (Q7RTX0 21-852 F778A) with T704L, A758F
T2 sequence (Q8TE23 20-839): T1 sequence (Q8TE23 20-839)
How it was run: as §1

| EC50 [1] | Emax [1] | EC50 [2] | Emax [2] | Structure (SMILES) |
| --- | --- | --- | --- | --- |
| 1500 ± 400 µM | 50 ± 18% | 500 ± 300 µM | 58 ± 60% | COc1ccc(CCC(=O)c2c(O)cc(O[C@@H]3O[C@H](CO)[C@@H](O)[C@H](O)[C@H]3O[C@@H]3O[C@@H](C)[C@H](O)[C@@H](O)[C@H]3O)cc2O)cc1O [NHDC, neohesperidin dihydrochalcone] |
| 1200 ± 100 µM | 80 ± 80% | 1500 ± 200 µM | 69 ± 2% | COC(=O)[C@H](Cc1ccccc1)NC(=O)[C@@H](N)CC(=O)O [aspartame] (HELM PEPTIDE1{D.F.[CO[*:1]]}$$$$V2.0) |
